In the NIST ThermoML archive (doi:10.1021/je700140j):
Numbers after ± are expanded uncertainties.

Experiments:
[1] = for surface tension liquid-gas: Ring tensiometer; for mass density / viscosity: 100.8 kPa, Liquid
[2] = refractive index (Na D-line) (dimensionless); conditions: 101.33 kPa, Liquid, Standard Abbe refractometry
[3] = xn = mol fraction of the nth substance listed; conditions: x1 = 1; for surface tension liquid-gas: Ring tensiometer; for mass density / viscosity: 100.8 kPa, Liquid
[4] = refractive index (Na D-line) (dimensionless); xn = mol fraction of the nth substance listed; conditions: 100.8 kPa, Liquid, Standard Abbe refractometry, x1 = 1

OCCc1ccccc1 [2-phenylethanol]
Conditions	mass density, [1] [kg/m3]	refractive index, [2]	surface tension liquid-gas, [1] [mN/m]	viscosity, [1] [mPa·s]
298.15 K	1016.2 ± 0.39	1.53269 ± 0.00037	39.43 ± 0.58	11.4 ± 0.14
308.15 K	1008.63 ± 0.37	1.52852 ± 0.00037	38.93 ± 0.57	7.518 ± 0.098
318.15 K	1000.98 ± 0.36	1.52427 ± 0.00037	38.35 ± 0.56	5.232 ± 0.071

OCc1ccccc1 [benzenemethanol]
Conditions	mass density, [1] [kg/m3]	refractive index, [2]	surface tension liquid-gas, [1] [mN/m]	viscosity, [1] [mPa·s]
298.15 K	1041.4 ± 0.29	1.53843 ± 0.00033	38.63 ± 0.54	5.555 ± 0.071
308.15 K	1033.6 ± 0.27	1.53421 ± 0.00033	37.73 ± 0.53	4.093 ± 0.054
318.15 K	1025.72 ± 0.26	1.52994 ± 0.00033	36.75 ± 0.52	3.12 ± 0.041

OCc1ccccc1 [benzenemethanol] + OCCc1ccccc1
Conditions	mass density, [3] [kg/m3]	refractive index, [4]	surface tension liquid-gas, [3] [mN/m]	viscosity, [3] [mPa·s]
298.15 K	1041.4 ± 0.29	1.53843 ± 0.00033	38.63 ± 0.54	5.555 ± 0.071
308.15 K	1033.6 ± 0.27	1.53421 ± 0.00033	37.73 ± 0.53	4.093 ± 0.054
318.15 K	1025.72 ± 0.26	1.52994 ± 0.00033	36.75 ± 0.52	3.12 ± 0.041

CC(C)O [propan-2-ol]
Conditions	mass density, [1] [kg/m3]	refractive index, [2]	surface tension liquid-gas, [1] [mN/m]	viscosity, [1] [mPa·s]
298.15 K	781.17 ± 0.61	1.37507 ± 0.00033	20.85 ± 0.32	2.082 ± 0.028
308.15 K	772.53 ± 0.63	1.37063 ± 0.00033	20.05 ± 0.31	1.55 ± 0.021
318.15 K	763.52 ± 0.65	1.3661 ± 0.00033	19.35 ± 0.31	1.181 ± 0.016

CC(C)O [propan-2-ol] + OCCc1ccccc1
Conditions	mass density, [3] [kg/m3]	refractive index, [4]	surface tension liquid-gas, [3] [mN/m]	viscosity, [3] [mPa·s]
298.15 K	781.17 ± 0.61	1.37507 ± 0.00033	20.85 ± 0.32	2.082 ± 0.028
308.15 K	772.53 ± 0.63	1.37063 ± 0.00033	20.05 ± 0.31	1.55 ± 0.021
318.15 K	763.52 ± 0.65	1.3661 ± 0.00033	19.35 ± 0.31	1.181 ± 0.016

CC(C)O [propan-2-ol] + OCc1ccccc1
Conditions	mass density, [3] [kg/m3]	refractive index, [4]	surface tension liquid-gas, [3] [mN/m]	viscosity, [3] [mPa·s]
298.15 K	781.17 ± 0.61	1.37507 ± 0.00033	20.85 ± 0.32	2.082 ± 0.028
308.15 K	772.53 ± 0.63	1.37063 ± 0.00033	20.05 ± 0.31	1.55 ± 0.021
318.15 K	763.52 ± 0.65	1.3661 ± 0.00033	19.35 ± 0.31	1.181 ± 0.016
